Where two headings read alike, the source gives them in different places.
Test system: cancer cell lines from the cancer cell line encyclopedia (CCLE)
Test: Cell line profiling (CLiP) proliferation experiment
Assay type: cell-based
Conditions: Homo sapiens; for EC50: read-out: Inflection Point; for IC50: read-out: Crossing Point
Procedure: Compound profiling experiment and data analysis was performed as previously described. Data was imported and plotted using the Tibco Spotfire DXP application. Lines were categorized as sensitive, intermediate and refractory as follows: Amax<-40 & Inflection Point <2 ~ Sensitive, Amax>-20 & Inflection Point >10 ~ Refractory, all else were called Intermediate. Cancer Cell line HG-U133 Plus 2 data was processed and normalized as described. […] Five sets of refractory cell lines were generated from the pool of refractory cell lines trying to match the lineage composition of the set of sensitive cell lines. The limma package was used as previously described to perform the statistical comparison.

[1] = MKN-74, cell line MKN74 (stomach)
[2] = MM1.S, cell line MM1-S (haematopoietic_and_lymphoid_tissue)
[3] = MOLM-13, cell line MOLM-13 (haematopoietic_and_lymphoid_tissue)
[4] = MOLP-8, cell line MOLP-8 (haematopoietic_and_lymphoid_tissue)
[5] = MOLT-16, cell line MOLT-16 (haematopoietic_and_lymphoid_tissue)
[6] = MONO-MAC-6, cell line MONO-MAC-6 (haematopoietic_and_lymphoid_tissue)
[7] = MV4-11, cell line MV-4-11 (haematopoietic_and_lymphoid_tissue)
[8] = NCI-H82, NCI-H82, lung, small_cell_carcinoma
[9] = NCI-H441, NCI-H441, lung, adenocarcinoma
[10] = NCI-H647, NCI-H647, lung, mixed_adenosquamous_carcinoma
[11] = NCI-H650, NCI-H650, lung, bronchioloalveolar_adenocarcinoma
[12] = NCI-H716, NCI-H716, large_intestine, adenocarcinoma
[13] = NCI-H810, NCI-H810, lung, large_cell_carcinoma
[14] = NCI-H1092, cell line NCI-H1092 (lung)
[15] = NCI-H1299, cell line NCI-H1299 (lung)
[16] = NCI-H1563, cell line NCI-H1563 (lung)
[17] = NCI-H1581, cell line NCI-H1581 (lung)

Structure (SMILES): CC(C)[C@@]12C[C@@H](O)[C@@](C)(O1)[C@@H]1CC[C@@H](C)[C@H]1[C@@H]2OC(=O)/C=C/c1ccccc1 [Englerin B]
- EC50 (MIA PaCa-2, cell line MIA PaCa-2 (pancreas)): 11.3 µM
- IC50 (MKN-1, cell line MKN1 (stomach)): > 30 µM
- IC50 (MKN-1, cell line MKN1): > 30 µM
- IC50 (MKN-7, MKN7 (stomach)): > 30 µM
- IC50 (MKN-7, cell line MKN7 (stomach)): > 30 µM
- IC50 (MKN-45, MKN-45 (stomach)): > 30 µM
- IC50 (MKN-45, cell line MKN-45 (stomach)): > 30 µM
- IC50 [1]: 27.5 µM
- EC50 [1]: 27.5 µM
- IC50 [2]: > 30 µM
- EC50 [2]: 25.6 µM
- IC50 (MM1.S, cell line MM1-S): > 30 µM
- EC50 (MOLM-13, MOLM-13 (haematopoietic_and_lymphoid_tissue)): 13.1 µM
- IC50 [3]: 13.4 µM
- EC50 [3]: 13.1 µM
- IC50 [4]: 16.6 µM
- EC50 [4]: 12.1 µM
- IC50 (MOLP-8, cell line MOLP-8): 16.6 µM
- IC50 [5]: 23.3 µM
- EC50 [5]: 23.3 µM
- IC50 [6]: 18.4 µM
- EC50 [6]: 18.4 µM
- IC50 (MSTO-211H, cell line MSTO-211H (pleura)): 27.7 µM
- IC50 (MV4-11, MV-4-11 cells): 11.4 µM
- EC50 (MV4-11, MV-4-11 cells): 11.4 µM
- IC50 [7]: 11.4 µM
- EC50 [7]: 11.4 µM
- IC50 (Malme-3M, Malme-3M (skin)): > 30 µM
- IC50 (Malme-3M, Malme-3M cells): > 30 µM
- IC50 (Maver1, MAVER-1 (haematopoietic_and_lymphoid_tissue)): 13.2 µM
- IC50 (MeWo, cell line MeWo (skin)): 26.2 µM
- EC50 (MeWo, cell line MeWo (skin)): 22.6 µM
- IC50 (NALM-6, cell line NALM-6 (haematopoietic_and_lymphoid_tissue)): 11.8 µM
- IC50 (NCI-H28, NCI-H28, pleura, NS): 11.9 µM
- EC50 (NCI-H28, NCI-H28, pleura, NS): 10.5 µM
- IC50 [8]: 19.6 µM
- EC50 [8]: 19.6 µM
- IC50 (NCI-H82, NCI-H82 cells): 19.6 µM
- EC50 (NCI-H82, NCI-H82 cells): 19.6 µM
- IC50 (NCI-H146, NCI-H146 cells): > 30 µM
- IC50 (NCI-H146, cell line NCI-H146 (lung)): > 30 µM
- IC50 (NCI-H226, NCI-H226, lung, squamous_cell_carcinoma): > 30 µM
- IC50 (NCI-H226, cell line NCI-H226): > 30 µM
- IC50 (NCI-H358, NCI-H358, lung, bronchioloalveolar_adenocarcinoma): 22.8 µM
- IC50 [9]: > 30 µM
- EC50 [9]: 12.7 µM
- IC50 (NCI-H441, cell line NCI-H441): > 30 µM
- IC50 (NCI-H460, NCI-H460, lung, large_cell_carcinoma): > 30 µM
- IC50 (NCI-H460, cell line NCI-H460): > 30 µM
- IC50 (NCI-H520, NCI-H520, lung, squamous_cell_carcinoma): > 30 µM
- IC50 (NCI-H520, NCI-H520 cells): > 30 µM
- IC50 (NCI-H596, NCI-H596, lung, mixed_adenosquamous_carcinoma): > 30 µM
- IC50 (NCI-H596, NCI-H596 cells): > 30 µM
- IC50 [10]: 15 µM
- EC50 [10]: 15 µM
- IC50 [11]: 15.8 µM
- EC50 [11]: 15.8 µM
- IC50 (NCI-H650, NCI-H650 cells): 15.8 µM
- EC50 (NCI-H650, NCI-H650 cells): 15.8 µM
- IC50 (NCI-H661, NCI-H661, lung, large_cell_carcinoma): > 30 µM
- IC50 (NCI-H661, NCI-H661 cells): > 30 µM
- IC50 [12]: 29.8 µM
- EC50 [12]: 21.4 µM
- EC50 (NCI-H716, NCI-H716 cells): 21.4 µM
- IC50 (NCI-H727, NCI-H727, lung, NS): > 30 µM
- IC50 (NCI-H727, cell line NCI-H727): > 30 µM
- IC50 [13]: 26.6 µM
- EC50 [13]: 21.1 µM
- IC50 (NCI-H838, NCI-H838, lung, adenocarcinoma): > 30 µM
- IC50 (NCI-H838, NCI-H838 cells): > 30 µM
- IC50 (NCI-H1048, cell line NCI-H1048 (lung)): 4.81 µM
- IC50 [14]: > 30 µM
- EC50 [14]: 3.48 µM
- IC50 (NCI-H1092, cell line NCI-H1092): > 30 µM
- IC50 [15]: 13 µM
- EC50 [15]: 11.3 µM
- IC50 (NCI-H1355, cell line NCI-H1355 (lung)): 10.7 µM
- IC50 (NCI-H1437, NCI-H1437 cells): > 30 µM
- IC50 (NCI-H1437, cell line NCI-H1437 (lung)): > 30 µM
- IC50 [16]: > 30 µM
- EC50 [16]: 9.9 µM
- IC50 (NCI-H1563, cell line NCI-H1563): > 30 µM
- IC50 (NCI-H1573, cell line NCI-H1573 (lung)): 1.5 µM
- EC50 (NCI-H1581, NCI-H1581 cells): 15.4 µM
- IC50 [17]: 14.7 µM
- EC50 [17]: 15.4 µM
- IC50 (NCI-H1623, cell line NCI-H1623 (lung)): > 30 µM
- IC50 (NCI-H1623, cell line NCI-H1623): > 30 µM
- IC50 (NCI-H1650, NCI-H1650 (lung)): 26.2 µM
- IC50 (NCI-H1650, cell line NCI-H1650 (lung)): 26.2 µM
- IC50 (NCI-H1651, NCI-H1651 cells): > 30 µM
- IC50 (NCI-H1651, cell line NCI-H1651 (lung)): > 30 µM

Source: publication PMC4476799, “Englerin A Agonizes the TRPC4/C5 Cation Channels to Inhibit Tumor Cell Line Proliferation” (PLoS ONE, 2015)
